The assay has as its target T1, human TLR7 (Homo sapiens, UniProt Q9NYK1).
T1 construct: expressed in transfected cells; host or cells: HEK293 cell line stably expressing the pNiFty2-SEAP reporter plasmid; TLR7 in pUNO vector, blasticidin selection
T1 sequence (Q9NYK1 27-1049): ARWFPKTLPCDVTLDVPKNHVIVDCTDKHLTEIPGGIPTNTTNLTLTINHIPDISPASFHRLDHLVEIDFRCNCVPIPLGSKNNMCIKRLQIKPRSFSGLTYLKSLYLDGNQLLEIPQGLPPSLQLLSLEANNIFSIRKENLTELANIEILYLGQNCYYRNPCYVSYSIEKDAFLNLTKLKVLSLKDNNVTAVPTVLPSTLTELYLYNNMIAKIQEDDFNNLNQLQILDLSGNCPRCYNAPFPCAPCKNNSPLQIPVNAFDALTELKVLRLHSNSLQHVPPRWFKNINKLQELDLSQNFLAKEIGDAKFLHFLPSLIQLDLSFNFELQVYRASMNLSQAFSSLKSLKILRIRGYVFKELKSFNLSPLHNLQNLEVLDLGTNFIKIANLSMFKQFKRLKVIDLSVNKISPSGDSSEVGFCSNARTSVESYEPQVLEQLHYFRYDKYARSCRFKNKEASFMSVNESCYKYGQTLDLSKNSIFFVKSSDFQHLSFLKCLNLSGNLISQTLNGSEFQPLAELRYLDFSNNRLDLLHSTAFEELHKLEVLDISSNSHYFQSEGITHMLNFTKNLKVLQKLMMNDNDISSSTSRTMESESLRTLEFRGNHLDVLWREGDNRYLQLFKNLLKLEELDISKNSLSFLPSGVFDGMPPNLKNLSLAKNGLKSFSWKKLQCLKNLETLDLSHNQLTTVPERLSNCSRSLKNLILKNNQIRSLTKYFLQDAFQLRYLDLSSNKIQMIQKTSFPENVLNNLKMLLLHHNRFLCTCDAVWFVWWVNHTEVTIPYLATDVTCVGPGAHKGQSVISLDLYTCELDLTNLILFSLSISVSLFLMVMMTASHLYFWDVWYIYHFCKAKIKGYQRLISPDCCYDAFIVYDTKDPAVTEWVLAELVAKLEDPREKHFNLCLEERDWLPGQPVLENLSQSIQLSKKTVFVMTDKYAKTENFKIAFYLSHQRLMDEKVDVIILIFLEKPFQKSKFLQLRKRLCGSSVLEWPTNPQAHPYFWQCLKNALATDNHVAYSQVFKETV
As to the kind of experiment: Human TLR7 Assay (SEAP reporter in HEK293 cells).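 Further: Read-out is secreted alkaline phosphatase made under an NFkB/ELAM-1 composite promoter, reporting TLR7-triggered NFkB activation.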 The assay is classed as cell-based. The following applies: HEK293 cell line expressing human TLR7 and pNiFty2-SEAP reporter, overnight incubation at 37° C., 0.1% DMSO; read-out: hTLR7 EC50.

Each structure is given as a SMILES string.

The text below walks through data of patent US20110136801A1, “Novel Compounds” (Dainippon Sumitomo Pharma Co. Ltd., priority 2009, published 2011).

With `CCOC(=O)C(CC)Oc1cccc(CN(CCCn2c(CCOC)nc3c(N)nc4ccccc4c32)C(=O)CN(CC)CC)c1` (centres unmarked) [Example 71, Ethyl 2-{3-[(N-{3-[4-amino-2-(2-methoxyethyl)-1H-imidazo[4,5-c]quinolin-1-yl]propyl}-2-{diethylamino}acetamido)methyl]phenoxy}butanoate], the EC50 (commonly the concentration giving half of the maximal effect) turned out to be 0.023 µM. On to `COCCc1nc2c(N)nc3ccccc3c2n1CCCN(Cc1cccc(OCC(=O)OC(C)C)c1)C(=O)CN1CCOCC1` [Example 112, Isopropyl 2-{3-[(N-{3-[4-amino-2-(2-methoxyethyl)-1H-imidazo[4,5-c]quinolin-1-yl]propyl}-2-morpholinoacetamido)methyl]phenoxy}acetate], for which the EC50 is 0.756 µM. For `COCCc1nc2c(N)nc3ccccc3c2n1CCCNCc1cccc(OCC(=O)OC)c1` [Example 15, Methyl (3-{[[3-(4-amino-2-(2-methoxyethyl)-1H-imidazo[4,5-c]quinolin-1-yl)propyl]amino]methyl}phenoxy)acetate], the EC50 is 0.181 µM.

On to `CCCCc1nc2c(N)nc3ccccc3c2n1CCCN(Cc1cccc(OCC(=O)OC(C)C)c1)C(=O)CN(C)C` [Example 159, Isopropyl 2-[3-({N-[3-(4-amino-2-butyl-1H-imidazo[4,5-c]quinolin-1-yl)propyl]-2-(dimethylamino)acetamido}methyl)phenoxy]acetate], for which the EC50 amounted to 0.139 µM. Take `CCOC(=O)C(C)(C)Oc1cccc(CN(CCCCn2c(CCOC)nc3c(N)nc4ccccc4c32)CCN(C)C)c1` [Example 134, Ethyl 2-{3-[({4-[4-amino-2-(2-methoxyethyl)-1H-imidazo[4,5-c]quinolin-1-yl]butyl}{2-(dimethylamino)ethyl}amino)methyl]phenoxy}-2-methylpropanoate]: the EC50 is 0.0209 µM. As for `CCN(CC)CC(=O)N(CCn1c(CCOC)nc2c(N)nc3ccccc3c21)Cc1cccc(OCC(=O)OC)c1` [Example 102, Methyl 2-{3-[(N-{2-[4-amino-2-(2-methoxyethyl)-1H-imidazo[4,5-c]quinolin-1-yl]ethyl}-2-{diethylamino}acetamido)methyl]phenoxy}acetate], the figure is over 10 µM; as for `CCOC(=O)COc1cccc(CN(CCCn2c(CCOC)nc3c(N)nc4ccccc4c32)C(=O)CN2CCCCC2)c1` [Example 32, Ethyl 2-{3-[(N-{3-[4-amino-2-(2-methoxyethyl)-1H-imidazo[4,5-c]quinolin-1-yl]propyl}-2-(piperidin-1-yl)acetamido)methyl]phenoxy}acetate], 0.177 µM.

As to `COCCc1nc2c(N)nc3ccccc3c2n1CCCN(Cc1cccc(OC(C)(C)C(=O)OC)c1)C(=O)CN(C)C` [Example 149, Methyl 2-{3-[(N-{3-[4-amino-2-(2-methoxyethyl)-1H-imidazo[4,5-c]quinolin-1-yl]propyl}-2-{dimethylamino}acetamido)methyl]phenoxy}-2-methylpropanoate], the EC50 was 0.181 µM.

`CCOC(=O)COc1cc(CN(CCCn2c(CCOC)nc3c(N)nc4ccccc4c32)C(=O)CN(CC)CC)ccc1OC` [Example 62, Ethyl 2-{5-[(N-{3-[4-amino-2-(2-methoxyethyl)-1H-imidazo[4,5-c]quinolin-1-yl]propyl}-2-{diethylamino}acetamido)methyl]-2-methoxyphenoxy}acetate]: the EC50 is 0.0842 µM. Consider `CCN(CC)CC(=O)N(CCn1c(CCOC)nc2c(N)nc3ccccc3c21)Cc1cccc(OCC(=O)OC(C)C)c1` [Example 103, Isopropyl 2-{3-[(N-{2-[4-amino-2-(2-methoxyethyl)-1H-imidazo[4,5-c]quinolin-1-yl]ethyl}-2-{diethylamino}acetamido)methyl]phenoxy}acetate], for which the EC50 is over 10 µM. Take `CCN(CC)CC(=O)N(CCCn1c(CCOC)nc2c(N)nc3ccccc3c21)Cc1cc(F)cc(OCC(=O)OC(C)C)c1` [Example 123, Isopropyl 2-{3-[(N-{3-[4-amino-2-(2-methoxyethyl)-1H-imidazo[4,5-c]quinolin-1-yl]propyl}-2-{diethylamino}acetamido)methyl]-5-fluorophenoxy}acetate]: the 50% effective concentration (EC50) came out at 0.0502 µM. `CCN(CC)CC(=O)N(CCCn1c(CCOC)nc2c(N)nc3ccccc3c21)Cc1cccc(OCC(=O)OC(C)C)c1OC` [Example 90, Isopropyl 2-{3-[(N-{3-[4-amino-2-(2-methoxyethyl)-1H-imidazo[4,5-c]quinolin-1-yl]propyl}-2-{diethylamino}acetamido)methyl]-2-methoxyphenoxy}acetate]: the EC50 stood at 0.081 µM. `CCCCOC(=O)COc1cccc(CN(CCCn2c(CCOC)nc3c(N)nc4ccccc4c32)C(=O)CN(CC)CC)c1` [Example 83, Butyl 2-{3-[(N-{3-[4-amino-2-(2-methoxyethyl)-1H-imidazo[4,5-c]quinolin-1-yl]propyl}-2-{diethylamino}acetamido)methyl]phenoxy}acetate]: the EC50 is 0.0613 µM. Regarding `CCN(CC)CC(=O)N(CCCn1c(CCOC)nc2c(N)nc3ccccc3c21)Cc1ccc(F)c(OCC(=O)OC(C)C)c1` [Example 118, Isopropyl 2-{5-[(N-{3-[4-amino-2-(2-methoxyethyl)-1H-imidazo[4,5-c]quinolin-1-yl]propyl}-2-{diethylamino}acetamido)methyl]-2-fluorophenoxy}acetate], the EC50 worked out at 0.0774 µM. Consider `CCN(CC)CC(=O)N(CCCn1c(CCOC)nc2c(N)nc3ccccc3c21)Cc1ccccc1OCC(=O)OC` [Example 40, Methyl 2-{2-[(N-{3-[4-amino-2-(2-methoxyethyl)-1H-imidazo[4,5-c]quinolin-1-yl]propyl}-2-(diethylamino)acetamido)methyl]phenoxy}acetate], for which the EC50 was 0.243 µM. As for `CCN(CC)CC(=O)N(CCCn1c(CCOC)nc2c(N)nc3ccccc3c21)Cc1cccc(OCC(=O)OC2CCC2)c1` [Example 81, Cyclobutyl 2-{3-[(N-{3-[4-amino-2-(2-methoxyethyl)-1H-imidazo[4,5-c]quinolin-1-yl]propyl}-2-{diethylamino}acetamido)methyl]phenoxy}acetate], the EC50 stood at 0.0561 µM. On to `CCCCc1nc2c(N)nc3ccccc3c2n1CCCN(Cc1cccc(OC(C)(C)C(=O)OCC)c1)C(=O)CN1CCCC1` [Example 168, Ethyl 2-[3-({N-[3-(4-amino-2-butyl-1H-imidazo[4,5-c]quinolin-1-yl)propyl]-2-(pyrrolidin-1-yl)acetamido}methyl)phenoxy]-2-methylpropanoate], for which the EC50 was 0.166 µM. Consider `CCCCc1nc2c(N)nc3ccccc3c2n1CCCN(Cc1cccc(OCC(=O)OC(C)C)c1F)C(=O)CN(C)C` [Example 165, Isopropyl 2-[3-({N-[3-(4-amino-2-butyl-1H-imidazo[4,5-c]quinolin-1-yl)propyl]-2-(dimethylamino)acetamido}methyl)-2-fluorophenoxy]acetate], for which the EC50 turned out to be 0.297 µM. Turning to `CCOC(=O)C(C)Oc1cccc(CN(CCCn2c(CCOC)nc3c(N)nc4ccccc4c32)C(=O)CN(CC)CC)c1` (centres unmarked) [Example 52, Ethyl 2-{3-[(N-{3-[4-amino-2-(2-methoxyethyl)-1H-imidazo[4,5-c]quinolin-1-yl]propyl}-2-{diethylamino}acetamido)methyl]phenoxy}propanoate], the EC50 turned out to be 0.0242 µM. To `CCN(CC)CC(=O)N(CCCn1c(CCOC)nc2c(N)nc3ccccc3c21)Cc1cccc(OC(C)C(=O)OC)c1` (centres unmarked) [Example 51, Methyl 2-{3-[(N-{3-[4-amino-2-(2-methoxyethyl)-1H-imidazo[4,5-c]quinolin-1-yl]propyl}-2-{diethylamino}acetamido)methyl]phenoxy}propanoate] belongs 0.0426 µM.
